≈ marks a conversion by molar mass, not a printed value.
Experiments:
human IRAK4 = human IRAK4 (Homo sapiens (Human), UniProt Q9NWZ3); test: IRAK4 enzymatic assay (Transcreener fluorescence polarization, ADP detection); assay type: biochemical; conditions: recombinant full-length IRAK4; 125 uM ATP; 90 min
Protocol: Compounds were assayed for inhibition of human IRAK4 and IRAK1 catalytic activity using recombinant enzyme produced from insect cells. Full-length IRAK4 protein, carrying an N-terminal His6-Tag, was obtained from Life Technologies (Carlsbad, Calif., USA). The IRAK1 construct was produced internally and was comprised of IRAK1 residues Arg194 to Ser712, preceded by an NH2-terminal His6 tag and the coding sequence for glutathione-S-transferase.
Kinase activities were assayed using the Transcreener-Fluorecescence polarization platform (BelBrook Labs, Madison, Wis., USA) that measures amounts of the reaction product, ADP. […] Final IRAK4 assay conditions were 1.25 nM IRAK4; 125 uM ATP; 10 uM MgC2; 125 uM peptide in reaction buffer (25 mM HEPES (pH7.4); 2 mM Dithiothreitol; 0.015% Brij-35; and 0.5% dimethyl sulfoxide. The IRAK1 activity was optimized similarly, yielding final assay conditions of […] IRAK1; 62.5 uM ATP; 5 uM MgCl2, and 62.5 uM IRAK1 peptide in reaction buffer for 60 min.
Assays of compounds for kinase inhibition were performed using inhibitors serially-diluted in dimethyl sulfoxide, which was accomplished with a LabCyte Echo 555 liquid dispenser. 384 well assay plates spotted with compound received 4 ul of a 2× substrate (ATP+peptide) mix in reaction buffer, followed by 4 ul of 2× enzyme diluted in reaction buffer. Reactions were halted at 60 (IRAK1) or 90 (IRAK4) min by addition of 6 ul of detection buffer, containing EDTA ([…] final concentration), 0.95 ug of the ADP-binding antibody ADP2, ADP tracer (3 nM final concentration), and […] HEPES. Following a 1 hr incubation, fluorescence polarization of the ADP2-antibody::TRACER complex was read on a Tecan M1000 plate reader using a 635/20 excitation filter in combination with a 670/20 emission filter. Delta milli-P values were analyzed using Genedata software to fit dose-response curves and compute compound Ki values, using ATP Km values of 642 um and 83.2 uM for IRAK4 and IRAK1, respectively. Table 3 provides IRAK4 Ki values for representative compounds of the present invention.

Kinetic solubility assay = assay type: physicochemical; conditions: for solubility kinetic at 24 h: PBS buffer with 2% DMSO, aqueous buffer, kinetic from dmso stock, PBS buffer pH 7.4, 2% DMSO, 24 hours shaking at room temperature, UHPLC-CLND; for Fold improvement in kinetic solubility: example compound versus its matched pair phenyl compound
Protocol: The kinetic solubility assay started with compound DMSO stock solutions. This assay used Millipore Multiscreen 96-well filter plates for the 24 hour equilibration shaking. Samples were prepared by adding 4 μL of the 10 mM compound DMSO stock solutions into 196 μL of PBS buffer pH 7.4 in the 96-well filter plates, yielding a compound concentration of 200 μM and 2% DMSO. The filter plate was sealed with aluminum sealing film and shaken at room temperature for 24 hours at 1000 rpm. When shaking has completed, the solutions were filtered into a clean 96-well plate utilizing a vacuum manifold. After filtration, some precipitate is often observed at the bottom of the filtration plate wells. Most of the precipitates appear to be crystalline under a polarizing light microscope. The filtrate samples were diluted by a factor of 2 using PBS pH7.4 buffer and then transferred to a 384-well plate for analysis by UHPLC-CLND (CLND: Chemiluminescence nitrogen detector). 5 μL of each sample was injected twice into the UHPLC-CLND for two repeat analysis.
Samples were detected and analyzed using UV 254 nm and CLND. UV 254 nm is used primarily to confirm the sample purity but in rare cases, is also used to quantify the concentration of compounds with no nitrogens, where additional work is done to create a compound specific calibration curve. The identification of CLND target peaks of each compound were confirmed by LCMS. Sample quantification was accomplished by CLND peak intensity, the calibration curve, and the number of nitrogen contained in the compound. One calibration curve of caffeine was used for solubility quantitative determination. A fresh calibration curve was created for every batch. The number of nitrogens in a compound used for this quantification was corrected for the actual configuration of the nitrogen in the compound.

[1] = Plasma protein binding using rapid equilibrium dialysis (RED); assay type: in vitro ADME; conditions: pH 7.4, human plasma, 37° C., read-out: Human PPB (converted)
Protocol: Plasma protein binding was measured in duplicate using rapid equilibrium dialysis (RED) device ((Thermo Scientific Pierce) in a 96-well format. Briefly, 10.0 μL drug or control compounds (0.5 mM in DMSO) was mixed with 1000 μL plasma (pH adjusted to 7.4) from various species (BioreclamationIVT). Aliquots of 300 μL drug/plasma mixture were placed into the donor side chamber of a single-use RED plate, and 500 μL aliquots of PBS buffer were placed into the adjacent chamber as the receiver side. The plate was incubated on an orbital shaker at 400 rpm, at 37° C. for 4 hours. After completion of incubation, 50 μL aliquots from the PBS buffer side were mixed with 5 μL of blank plasma matrix, and 5 μL from the donor side (plasma) were mixed with 50 μL blank PBS buffer. All samples were then crashed with 200 μL acetonitrile (containing internal standard) to precipitate plasma proteins. The samples were centrifuged at 3750 rpm for 10 min to pellet the proteins. The supernatants were carefully transferred to a fresh 96-well plate, and diluted with an equivalent volume of water. The samples were then analyzed by LC-MS/MS (ABI 4000, ABI Sciex). Data acquisition and processing was performed with Analyst 1.6.1 and Multiquant 2.1. The percent of protein binding and fraction unbound (fu) in matrix was calculated from taking the ratio of responses (peak areas) on the receiver side (buffer) to those on the donor side (plasma). The ratios were normalized to the internal standard.

Chain of human IRAK4 (Q9NWZ3 whole entry, the tested form may be a part): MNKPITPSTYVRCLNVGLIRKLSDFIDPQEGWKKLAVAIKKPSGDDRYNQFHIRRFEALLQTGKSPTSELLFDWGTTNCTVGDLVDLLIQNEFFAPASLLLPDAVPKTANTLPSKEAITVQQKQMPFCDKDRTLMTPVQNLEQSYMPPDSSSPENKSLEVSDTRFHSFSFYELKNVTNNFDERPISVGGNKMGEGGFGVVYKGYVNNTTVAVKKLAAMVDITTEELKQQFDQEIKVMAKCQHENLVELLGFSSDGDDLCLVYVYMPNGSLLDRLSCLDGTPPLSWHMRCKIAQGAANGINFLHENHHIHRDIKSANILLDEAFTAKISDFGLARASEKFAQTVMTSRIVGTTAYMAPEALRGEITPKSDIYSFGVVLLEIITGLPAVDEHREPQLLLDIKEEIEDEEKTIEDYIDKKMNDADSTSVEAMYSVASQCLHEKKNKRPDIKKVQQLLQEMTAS

Structure (SMILES)	Ki (human IRAK4)	solubility kinetic at 24 h (Kinetic solubility assay)	Fold improvement in kinetic solubility (Kinetic solubility assay)	fraction unbound at 4 h, 5 µM [1]
CC1(C)Cc2cc(NC(=O)c3cnn4cccnc34)c(N3CCOCC3)nc2O1 [Example 1, N-(2,2-dimethyl-6-morpholino-2,3-dihydrofuro[2,3-b]pyridin-5-yl)pyrazolo[1,5-a]pyrimidine-3-carboxamide]	39 nM	166 µM (≈ 65.5 µg/mL)	166.0	0.143
CC1(C)Cc2cc(NC(=O)c3cnn4cccnc34)c(N3CCN(CC(F)F)CC3)nc2O1 [Example 9, N-(6-(4-(2,2-Difluoroethyl)piperazin-1-yl)-2,2-dimethyl-2,3-dihydrofuro[2,3-b]pyridin-5-yl)pyrazolo[1,5-a]pyrimidine-3-carboxamide]	7.6 nM	137 µM (≈ 62.7 µg/mL)	137.0	0.123
